Measurements reported in the supplement of paper PMC10307832.

Key:
Test in all cases: relative viability (nuclei count vs DMSO), 5 days (fraction); higher = more cells survive
AZ505 + Pictilisib = compound: C1CCC(CC1)N(CCNCCC2=C3C(=C(C=C2)O)NC(=O)CO3)C(=O)CCNCCC4=CC(=C(C=C4)Cl)Cl [AZ505] + CS(=O)(=O)N1CCN(Cc2cc3nc(-c4cccc5[nH]ncc45)nc(N4CCOCC4)c3s2)CC1 [Pictilisib] (partner 1 µM)
How it was run: (§1)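 Values are medians from duplicate plates. Each reflects relative viability, defined as the nuclei count of treated wells over that of vehicle wells. Lung cancer cell lines in 1536-well plates were pin-tool dosed one day after seeding with one drug alone or with a fixed anchor-drug dose plus five library-drug doses (not always all listed) in √10 steps, then fixed, stained and imaged at 4× after 5 days.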

AZ505 + Decitabine = compound: C1CCC(CC1)N(CCNCCC2=C3C(=C(C=C2)O)NC(=O)CO3)C(=O)CCNCCC4=CC(=C(C=C4)Cl)Cl [AZ505] + Nc1ncn([C@H]2C[C@H](O)[C@@H](CO)O2)c(=O)n1 [Decitabine] (partner 2 µM)
How it was run: as §1

Dactolisib + Trametinib = compound: Cn1c(=O)n(-c2ccc(C(C)(C)C#N)cc2)c2c3cc(-c4cnc5ccccc5c4)ccc3ncc21 [Dactolisib] + CC(=O)Nc1cccc(-n2c(=O)n(C3CC3)c(=O)c3c(Nc4ccc(I)cc4F)n(C)c(=O)c(C)c32)c1 [Trametinib] (partner 0.02 µM)
How it was run: as §1

Dactolisib + Crizotinib = compound: Cn1c(=O)n(-c2ccc(C(C)(C)C#N)cc2)c2c3cc(-c4cnc5ccccc5c4)ccc3ncc21 [Dactolisib] + C[C@@H](Oc1cc(-c2cnn(C3CCNCC3)c2)cnc1N)c1c(Cl)ccc(F)c1Cl [Crizotinib] (partner 1 µM)
How it was run: as §1

UMC-11
relative viability (AZ505 + Pictilisib; first compound 0.08 µM): 0.753 | relative viability (AZ505 + Pictilisib; first compound 0.253 µM): 0.766 | relative viability (AZ505 + Pictilisib; first compound 0.8 µM): 0.688 | relative viability (AZ505 + Pictilisib; first compound 2.53 µM): 0.972 | relative viability (AZ505 + Pictilisib; first compound 8 µM): 0.974 | relative viability (AZ505 + Decitabine; first compound 0.08 µM): 0.742 | relative viability (AZ505 + Decitabine; first compound 0.253 µM): 0.674 | relative viability (AZ505 + Decitabine; first compound 0.8 µM): 0.53 | relative viability (AZ505 + Decitabine; first compound 2.53 µM): 0.52 | relative viability (AZ505 + Decitabine; first compound 8 µM): 0.666 | relative viability (Dactolisib + Trametinib; first compound 0.002 µM): 0.642 | relative viability (Dactolisib + Trametinib; first compound 0.006325 µM): 0.637 | relative viability (Dactolisib + Trametinib; first compound 0.02 µM): 0.578 | relative viability (Dactolisib + Trametinib; first compound 0.06325 µM): 0.282 | relative viability (Dactolisib + Trametinib; first compound 0.2 µM): 0.2 | relative viability (Dactolisib + Crizotinib; first compound 0.002 µM): 0.556 | relative viability (Dactolisib + Crizotinib; first compound 0.006325 µM): 0.585 | relative viability (Dactolisib + Crizotinib; first compound 0.02 µM): 0.403 | relative viability (Dactolisib + Crizotinib; first compound 0.06325 µM): 0.275 | relative viability (Dactolisib + Crizotinib; first compound 0.2 µM): 0.155
